Reference: US10246461B2, “Dosage form compositions comprising an inhibitor of bruton's tyrosine kinase” (Genentech, Inc., priority 2016, dated 2019)
Values after ≈ are worked out from the molar mass of the structure shown. Read-outs that look alike come from different tables or passages of the source. Values belong to the compound of their own block, whether it stands above or below them.

Legend:
[1] = Solubility of compound (I) free base in buffers of varying pH, FeSSIF and FaSSIF; assay type: physicochemical
[2] = Dissolution of compound (I) mesylate salt vs free base in pH 4.5 aqueous media; assay type: physicochemical; conditions: 100 mg in 2 mL pH 4.5 aqueous media, 37° C.
[3] = Two-stage non-sink dissolution assay (kinetic solubility) of ASD formulations and unformulated API: simulated gastric media then FaSSIF; assay type: physicochemical; conditions: pH 1 gastric media, dosed concentration of about 2000 ug/mL
Procedure: The assay was performed in a modified USP II apparatus (paddles). The experiment measured the total drug dissolved in the presence of excess solid API (non-sink conditions), which included a combination of ‘free’ and colloidal or polymer-bound drug in solution. In some evaluations—to simulate the relatively high pH gastric environment in patients taking proton pump inhibitors—different simulated gastric media were used to begin the two-stage experiment: either pH 1 (HCl buffer) or pH 4 or 5 (acetate buffers) at a nominal compound (I) concentration of 2.0 mg/mL. In some other experiments, acetate buffer was replaced with a dilute HCl solution at similar pH, to better mimic the expected in vivo environment. After 30 minutes, the test material was transferred to fasted-state simulated intestinal fluid (FaSSIF) media consisting of physiologically relevant bile salts (SIF Powder, Biorelevant Inc.) in 100 mM phosphate buffer, and the compound (I) concentration was diluted to 1.0 mg/mL. pH of the phosphate buffer was adjusted as needed to obtain a simulated intestinal pH of 6.8±0.1 in the second stage of the dissolution experiment. The test material was sampled periodically throughout the test and samples were centrifuged at 13,000 r/min. The supernatant was diluted 1:1 with sample diluent and the compound (I) concentration was measured by HPLC. […]

[4] = Human PK, second comparative study: single dose food and PPI assessment of 100 mg powder-in-capsule (Panels J-M); assay type: in vivo; conditions: 100 mg PIC single dose
Text: The protocol is detailed Table 24 below wherein each panel contained 10 human subjects.

[5] = Panel K: high fat breakfast, no PPI
[6] = Panel L: fasted + rabeprazole 20 mg BID
[7] = Panel M: high fat breakfast + rabeprazole 20 mg BID

solubility ([1]; aqueous buffer, pH 2.6, aqueous buffer, read-out: aqueous solubility): ~6500 µg/mL (≈ 9780 µM)
solubility ([1]; aqueous buffer, pH 5.0, read-out: solubility): ~1 µg/mL (≈ 1.5 µM)
SMILES: CC1CN(C2COC2)CCN1c1ccc(Nc2cc(-c3ccnc(N4CCn5c(cc6c5CC(C)(C)C6)C4=O)c3CO)cn(C)c2=O)nc1 [Compound (A), (R)-2-(3′-(hydroxymethyl)-1-methyl-5-((5-(2-methyl-4-(oxetan-3-yl)piperazin-1-yl)pyridin-2-yl)amino)-6-oxo-1,6-dihydro-[3,4′-bipyridin]-2′-yl)-7,7-dimethyl-2,3,4,6,7,8-hexahydro-1H-cyclopenta[4,5]pyrrolo[1,2-a]pyrazin-1-one]

% dissolved ([2]; 15 min): 0%
% dissolved ([2]; 30 min): 0.5%
% dissolved ([2]; 45 min): 2.3%
% dissolved ([2]; 60 min): 4.1%
kinetic dissolution in gastric media [3]: fully dissolved
solubility ([1]; FaSSIF (pH 6.8), read-out: Solubility): 13 µg/mL (≈ 19.6 µM)
solubility ([1]; FeSSIF (pH 5), read-out: Solubility): 18 µg/mL (≈ 27.1 µM)
solubility ([1]; aqueous buffer, pH 2.54, aqueous buffer, read-out: Solubility): 35900 µg/mL (≈ 54000 µM)
solubility ([1]; aqueous buffer, pH 2.6, aqueous buffer, pH 2.60, read-out: Solubility): 6480 µg/mL (≈ 9750 µM)
solubility ([1]; aqueous buffer, pH 3.8, aqueous buffer, pH 3.80, read-out: Solubility): 36 µg/mL (≈ 54.2 µM)
solubility ([1]; aqueous buffer, pH 5.04, aqueous buffer, read-out: Solubility): 1 µg/mL (≈ 1.5 µM)
solubility ([1]; aqueous buffer, pH 6.94, aqueous buffer, read-out: Solubility): 1 µg/mL (≈ 1.5 µM)
solubility ([1]; aqueous buffer, pH 7.76, aqueous buffer, read-out: Solubility): 1 µg/mL (≈ 1.5 µM)
plasma AUCinf, Mean ([4]; Panel J: fasted, no PPI): 1.073 µM·h
plasma HL-Lambda-z, Mean ([4]; Panel J: fasted, no PPI): 16 h
plasma HL-Lambda-z, Median ([4]; Panel J: fasted, no PPI): 13 h
plasma AUCinf, Mean [4, 5]: 1.701 µM·h
plasma HL-Lambda-z, Mean [4, 5]: 9.82 h
plasma HL-Lambda-z, Median [4, 5]: 9.7 h
plasma HL-Lambda-z, Mean [4, 6]: 12.8 h
plasma HL-Lambda-z, Median [4, 6]: 11 h
plasma HL-Lambda-z, Mean [4, 7]: 13.4 h
plasma HL-Lambda-z, Median [4, 7]: 12 h
Cmax ([4]; Panel M: high fat breakfast + rabeprazole 20 mg BID, read-out: plasma Cmax, Mean): 41 nM
AUC(0-t) ([4]; plasma, oral, Panel L: fasted + rabeprazole 20 mg BID, read-out: plasma AUC0-24, Mean): 0.157 µM·h
AUC(0-t) ([4]; plasma, oral, Panel L: fasted + rabeprazole 20 mg BID, read-out: plasma AUC0-24, Median): 0.16 µM·h
AUC(0-inf) ([4]; plasma, oral, Panel L: fasted + rabeprazole 20 mg BID, read-out: plasma AUCinf, Mean): 0.274 µM·h
AUC(0-inf) ([4]; plasma, oral, Panel L: fasted + rabeprazole 20 mg BID, read-out: plasma AUCinf, Median): 0.27 µM·h
AUC(0-t) ([4]; plasma, oral, Panel L: fasted + rabeprazole 20 mg BID, read-out: plasma AUClast, Mean): 0.261 µM·h
AUC(0-t) ([4]; plasma, oral, Panel L: fasted + rabeprazole 20 mg BID, read-out: plasma AUClast, Median): 0.27 µM·h
Cmax ([4]; plasma, oral, Panel L: fasted + rabeprazole 20 mg BID, read-out: plasma Cmax, Mean): 11.6 nM
Cmax ([4]; plasma, oral, Panel L: fasted + rabeprazole 20 mg BID, read-out: plasma Cmax, Median): 12 nM
Tmax ([4]; plasma, oral, Panel L: fasted + rabeprazole 20 mg BID, read-out: plasma Tmax, Mean): 5.7 h
Tmax ([4]; plasma, oral, Panel L: fasted + rabeprazole 20 mg BID, read-out: plasma Tmax, Median): 4 h
AUC(0-t) ([4]; plasma, oral, Panel M: high fat breakfast + rabeprazole 20 mg BID, read-out: plasma AUC0-24, Mean): 0.471 µM·h
AUC(0-t) ([4]; plasma, oral, Panel M: high fat breakfast + rabeprazole 20 mg BID, read-out: plasma AUC0-24, Median): 0.52 µM·h
AUC(0-inf) ([4]; plasma, oral, Panel M: high fat breakfast + rabeprazole 20 mg BID, read-out: plasma AUCinf, Mean): 0.657 µM·h
AUC(0-inf) ([4]; plasma, oral, Panel M: high fat breakfast + rabeprazole 20 mg BID, read-out: plasma AUCinf, Median): 0.67 µM·h
AUC(0-t) ([4]; plasma, oral, Panel M: high fat breakfast + rabeprazole 20 mg BID, read-out: plasma AUClast, Mean): 0.642 µM·h
AUC(0-t) ([4]; plasma, oral, Panel M: high fat breakfast + rabeprazole 20 mg BID, read-out: plasma AUClast, Median): 0.66 µM·h
Cmax ([4]; plasma, oral, Panel M: high fat breakfast + rabeprazole 20 mg BID, read-out: plasma Cmax, Mean): 40.6 nM
Cmax ([4]; plasma, oral, Panel M: high fat breakfast + rabeprazole 20 mg BID, read-out: plasma Cmax, Median): 40 nM
Tmax ([4]; plasma, oral, Panel M: high fat breakfast + rabeprazole 20 mg BID, read-out: plasma Tmax, Mean): 6.9 h
Tmax ([4]; plasma, oral, Panel M: high fat breakfast + rabeprazole 20 mg BID, read-out: plasma Tmax, Median): 7 h
AUC(0-t) ([4]; plasma, oral, 100 mg, Panel J: fasted, no PPI, read-out: plasma AUC0-24, Mean): 0.967 µM·h
AUC(0-t) ([4]; plasma, oral, 100 mg, Panel J: fasted, no PPI, read-out: plasma AUC0-24, Median): 0.98 µM·h
AUC(0-inf) ([4]; plasma, oral, 100 mg, Panel J: fasted, no PPI, read-out: plasma AUCinf, Mean): 1.07 µM·h
AUC(0-inf) ([4]; plasma, oral, 100 mg, Panel J: fasted, no PPI, read-out: plasma AUCinf, Median): 1.1 µM·h
AUC(0-t) ([4]; plasma, oral, 100 mg, Panel J: fasted, no PPI, read-out: plasma AUClast, Mean): 1.06 µM·h
AUC(0-t) ([4]; plasma, oral, 100 mg, Panel J: fasted, no PPI, read-out: plasma AUClast, Median): 1 µM·h
Cmax ([4]; plasma, oral, 100 mg, Panel J: fasted, no PPI, read-out: plasma Cmax, Mean): 218 nM
Cmax ([4]; plasma, oral, 100 mg, Panel J: fasted, no PPI, read-out: plasma Cmax, Median): 200 nM
Tmax ([4]; plasma, oral, 100 mg, Panel J: fasted, no PPI, read-out: plasma Tmax, Mean): 1.5 h
Tmax ([4]; plasma, oral, 100 mg, Panel J: fasted, no PPI, read-out: plasma Tmax, Median): 1.5 h
AUC(0-t) ([4]; plasma, oral, 100 mg, Panel K: high fat breakfast, no PPI, read-out: plasma AUC0-24, Mean): 1.56 µM·h
AUC(0-t) ([4]; plasma, oral, 100 mg, Panel K: high fat breakfast, no PPI, read-out: plasma AUC0-24, Median): 1.5 µM·h
AUC(0-inf) ([4]; plasma, oral, 100 mg, Panel K: high fat breakfast, no PPI, read-out: plasma AUCinf, Mean): 1.7 µM·h
AUC(0-inf) ([4]; plasma, oral, 100 mg, Panel K: high fat breakfast, no PPI, read-out: plasma AUCinf, Median): 1.6 µM·h
AUC(0-t) ([4]; plasma, oral, 100 mg, Panel K: high fat breakfast, no PPI, read-out: plasma AUClast, Mean): 1.69 µM·h
AUC(0-t) ([4]; plasma, oral, 100 mg, Panel K: high fat breakfast, no PPI, read-out: plasma AUClast, Median): 1.6 µM·h
Cmax ([4]; plasma, oral, 100 mg, Panel K: high fat breakfast, no PPI, read-out: plasma Cmax, Mean): 235 nM
Cmax ([4]; plasma, oral, 100 mg, Panel K: high fat breakfast, no PPI, read-out: plasma Cmax, Median): 250 nM
Tmax ([4]; plasma, oral, 100 mg, Panel K: high fat breakfast, no PPI, read-out: plasma Tmax, Mean): 4 h
Tmax ([4]; plasma, oral, 100 mg, Panel K: high fat breakfast, no PPI, read-out: plasma Tmax, Median): 4 h
SMILES: C[C@H]1CN(C2COC2)CCN1c1ccc(Nc2cc(-c3ccnc(N4CCn5c(cc6c5CC(C)(C)C6)C4=O)c3CO)cn(C)c2=O)nc1 [Compound (I) free base, (S)-2-(3′-(hydroxymethyl)-1-methyl-5-((5-(2-methyl-4-(oxetan-3-yl)piperazin-1-yl)pyridin-2-yl)amino)-6-oxo-1,6-dihydro-[3,4′-bipyridin]-2′-yl)-7,7-dimethyl-2,3,4,6,7,8-hexahydro-1H-cyclopenta[4,5]pyrrolo[1,2-a]pyrazin-1-one]
